Tested on: HuH-7 replicon cells 5–15 and 9–13 (HCV replication)
Assay: Inhibition of viral replication in HuH-7 replicon cells (HCV RNA / GAPDH RNA by multiplex RT-PCR)
Assay type: cell-based
Details: Hepatitis C virus, 72 h; inhibiting 50% of replication; HuH-7 replicon cells, 3 days; read-out: IC50
Procedure, shortened: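 HCV and GAPDH RNA were measured by multiplex TaqMan RT-PCR (HCV 5′ untranslated region) after 3-day compound treatment at 37 °C, final 100 μM–1 μM in 1% DMSO. Cells were plated 24 h beforehand at 7×10^3/well. Read-out: HCV-to-GAPDH ratio expressed as percent control versus untreated cells.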

Structure (SMILES): COc1ccc(OC)c(S(=O)(=O)Oc2ccccc2/C=N/NC(=O)Cc2ccccc2)c1 [Compound 138, 2-{(E)-[2-(2-phenylacetyl)hydrazono]methyl}phenyl2,5-dimethoxybenzenesulfonate]
- IC50: > 50 µM

Structure (SMILES): O=C(Cc1ccccc1)N/N=C/c1ccccc1OS(=O)(=O)c1cc(Cl)ccc1Cl [Compound 139, 2-{(E)-[2-(2-phenylacetyl)hydrazono]methyl}phenyl2,5-dichlorobenzenesulfonate]
- IC50: > 50 µM

Structure (SMILES): O=C(Cc1ccccc1)N/N=C/c1ccccc1OS(=O)(=O)c1ccccc1Br [Compound 140, 2-{(E)-[2-(2-phenylacetyl)hydrazono]methyl}phenyl 2-bromobenzenesulfonate]
- IC50: > 50 µM

Structure (SMILES): O=C(Cc1ccccc1)N/N=C/c1ccccc1OS(=O)(=O)c1ccccc1OC(F)(F)F [Compound 141, 2-{(E)-[2-(2-phenylacetyl)hydrazono]methyl}phenyl 2-(trifluoromethoxy)benzenesulfonate]
- IC50: > 50 µM

Structure (SMILES): O=C(Cc1ccccc1)N/N=C/c1ccccc1OS(=O)(=O)c1ccc(OC(F)(F)F)cc1 [Compound 142, 2-{(E)-[2-(2-phenylacetyl)hydrazono]methyl}phenyl 4-(trifluoromethoxy)benzenesulfonate]
- IC50: < 5 µM

Structure (SMILES): COc1cccc(S(=O)(=O)Oc2ccccc2/C=N/NC(=O)Cc2ccccc2)c1 [Compound 143, 2-{(E)-[2-(2-phenylacetyl)hydrazono]methyl}phenyl 3-methoxybenzenesulfonate]
- IC50: 5 to 50 µM

Structure (SMILES): O=C(Cc1ccccc1)N/N=C/c1ccccc1OS(=O)(=O)c1ccc(-c2ccccc2)cc1 [Compound 144, 2-{(E)-[2-(2-phenylacetyl)hydrazono]methyl}phenyl1,1′-biphenyl-4-sulfonate]
- IC50: > 50 µM

Structure (SMILES): COc1cccc(CC(=O)N/N=C/c2ccccc2OS(=O)(=O)c2ccc(C)cc2)c1 [Compound 145, 2-((E)-{2-[2-(3-methoxyphenyl)acetyl]hydrazono}methyl)-phenyl 4-methylbenzenesulfonate]
- IC50: < 5 µM

Structure (SMILES): COc1cccc(CC(=O)N/N=C/c2ccccc2OS(=O)(=O)c2ccc(C(F)(F)F)cc2)c1 [Compound 146, 2-((E)-{2-[2-(3-methoxyphenyl)acetyl]hydrazono}methyl)-phenyl 4-(trifluoromethyl)benzenesulfonate]
- IC50: < 5 µM

Structure (SMILES): Cc1ccc(S(=O)(=O)Oc2ccccc2/C=N/NC(=O)Cc2cccc(Cl)c2)cc1 [Compound 147, 2-((E)-{2-[2-(3-chlorophenyl)acetyl]hydrazono}methyl)-phenyl 4-methylbenzenesulfonate]
- IC50: < 5 µM

Structure (SMILES): O=C(Cc1cccc(Cl)c1)N/N=C/c1ccccc1OS(=O)(=O)c1ccc(C(F)(F)F)cc1 [Compound 148, 2-((E)-{2-[2-(3-chlorophenyl)acetyl]hydrazono}methyl)-phenyl 4-(trifluoromethyl)benzenesulfonate]
- IC50: < 5 µM

Structure (SMILES): COc1ccc(CC(=O)N/N=C/c2ccccc2OS(=O)(=O)c2ccc(C)cc2)cc1OC [Compound 149, 2-((E)-{2-[2-(3,4-dimethoxyphenyl)acetyl]hydrazono}methyl)-phenyl 4-methylbenzenesulfonate]
- IC50: < 5 µM

Structure (SMILES): COc1ccc(CC(=O)N/N=C/c2ccccc2OS(=O)(=O)c2ccc(C(F)(F)F)cc2)cc1OC [Compound 150, 2-((E)-{2-[2-(3,4-dimethoxyphenyl)acetyl]hydrazono}methyl)-phenyl 4-(trifluoromethyl)benzenesulfonate]
- IC50: < 5 µM

Structure (SMILES): COc1ccc(S(=O)(=O)Oc2ccccc2/C=N/NC(=O)Cc2cccc(OC)c2)cc1 [Compound 151, 2-((E)-{2-[2-(3-methoxyphenyl)acetyl]hydrazono}methyl)-phenyl 4-methoxybenzenesulfonate]
- IC50: < 5 µM

Structure (SMILES): COc1cccc(CC(=O)N/N=C/c2ccccc2OS(=O)(=O)c2ccc(OC)c(OC)c2)c1 [Compound 152, 2-((E)-{2-[2-(3-methoxyphenyl)acetyl]hydrazono}methyl)-phenyl 3,4-dimethoxybenzenesulfonate]
- IC50: < 5 µM

Structure (SMILES): COc1cccc(CC(=O)N/N=C/c2ccccc2OS(=O)(=O)c2cc(OC)ccc2OC)c1 [Compound 153, 2-((E)-{2-[2-(3-methoxyphenyl)acetyl]hydrazono}methyl)-phenyl 2,5-dimethoxybenzenesulfonate]
- IC50: < 5 µM

Structure (SMILES): COc1cccc(CC(=O)N/N=C/c2ccccc2OS(=O)(=O)c2ccc(OC)cc2OC)c1 [Compound 154, 2-((E)-{2-[2-(3-methoxyphenyl)acetyl]hydrazono}methyl)-phenyl 2,4-dimethoxybenzenesulfonate]
- IC50: < 5 µM

Structure (SMILES): COc1cccc(CC(=O)N/N=C/c2cc(Cl)ccc2OS(=O)(=O)c2ccc(C)cc2)c1 [Compound 155, 4-chloro-2-((E)-{[(3-methoxyphenyl)acetyl]hydrazono}methyl)-phenyl 4-methylbenzenesulfonate]
- IC50: < 5 µM

Structure (SMILES): COc1cccc(CC(=O)N/N=C/c2cc(OC)ccc2OS(=O)(=O)c2ccc(C)cc2)c1 [Compound 156, 4-methoxy-2-((E)-{[(3-methoxyphenyl)acetyl]hydrazono}methyl)-phenyl 4-methylbenzenesulfonate]
- IC50: < 5 µM

Structure (SMILES): COc1cccc(CC(=O)N/N=C/c2cc(C)ccc2OS(=O)(=O)c2ccc(C)cc2)c1 [Compound 157, 2-((E)-{[(3-methoxyphenyl)acetyl]hydrazono}methyl)-4-methylphenyl 4-methylbenzenesulfonate]
- IC50: < 5 µM

Structure (SMILES): COc1cccc(CC(=O)N/N=C/c2cc(F)ccc2OS(=O)(=O)c2ccc(C)cc2)c1 [Compound 158, 4-fluoro-2-((E)-{[(3-methoxyphenyl)acetyl]hydrazono}methyl)-phenyl 4-methylbenzenesulfonate]
- IC50: < 5 µM

Structure (SMILES): COc1cccc(CC(=O)N/N=C/c2cccc(F)c2OS(=O)(=O)c2ccc(C)cc2)c1 [Compound 159]
- IC50: 5 to 50 µM

Structure (SMILES): COc1cccc(CC(=O)N/N=C/c2cccc(OC)c2OS(=O)(=O)c2ccc(C)cc2)c1 [Compound 160, 2-methoxy-6-((E)-{[(3-methoxyphenyl)acetyl]hydrazono}methyl)-phenyl 4-methylbenzenesulfonate]
- IC50: 5 to 50 µM

Structure (SMILES): CCOc1cccc(/C=N/NC(=O)Cc2cccc(OC)c2)c1OS(=O)(=O)c1ccc(C)cc1 [Compound 161, 2-ethoxy-6-((E)-{[(3-methoxyphenyl)acetyl]hydrazono}methyl)-phenyl 4-methylbenzenesulfonate]
- IC50: 5 to 50 µM

Structure (SMILES): COc1cccc(CC(=O)N/N=C/c2c(OS(=O)(=O)c3ccc(C)cc3)ccc3ccccc23)c1 [Compound 162, 1-((E)-{2-[2-(3-methoxyphenyl)acetyl]hydrazono}methyl)-2-naphthyl 4-methylbenzenesulfonate]
- IC50: 5 to 50 µM

Structure (SMILES): COc1cccc(CC(=O)N/N=C/c2cccc(C)c2OS(=O)(=O)c2ccc(C)cc2)c1 [Compound 163, 2-((E)-{[(3-methoxyphenyl)acetyl]hydrazono}methyl)-6-methylphenyl 4-methylbenzenesulfonate]
- IC50: < 5 µM

Structure (SMILES): Cc1ccc(S(=O)(=O)Oc2ccc(F)cc2/C=N/NC(=O)Cc2cccc(Cl)c2)cc1 [Compound 164, 2-((E)-{[(3-chlorophenyl)acetyl]-hydrazono}methyl)-4-fluorophenyl 4-methylbenzenesulfonate]
- IC50: < 5 µM

Structure (SMILES): COc1cccc(CC(=O)N/N=C/c2cccc(OC)c2OS(=O)(=O)c2ccc(C(F)(F)F)cc2)c1 [Compound 165, 2-methoxy-6-((E)-{[(3-methoxyphenyl)acetyl]hydrazono}methyl)-phenyl 4-(trifluoromethyl)-benzenesulfonate]
- IC50: < 5 µM

Structure (SMILES): COc1cccc(CC(=O)N/N=C/c2cc(Br)ccc2OS(=O)(=O)c2ccc(C(F)(F)F)cc2)c1 [Compound 166]
- IC50: < 5 µM

Structure (SMILES): COc1cccc(CC(=O)N/N=C/c2cccc(C)c2OS(=O)(=O)c2ccc(C(F)(F)F)cc2)c1 [Compound 168, 2-((E)-{[(3-methoxyphenyl)acetyl]hydrazono}methyl)-6-methylphenyl 4-(trifluoromethyl)benzenesulfonate]
- IC50: < 5 µM

Structure (SMILES): COc1cccc(CC(=O)N/N=C/c2c(Br)ccc(OC)c2OS(=O)(=O)c2ccc(C(F)(F)F)cc2)c1 [Compound 169, 3-bromo-6-methoxy-2-((E)-{[(3-methoxyphenyl)acetyl]hydrazono}methyl)-phenyl 4-(trifluoromethyl)benzenesulfonate]
- IC50: < 5 µM

Structure (SMILES): COc1cccc(CC(=O)N/N=C/c2c(OC)cccc2OS(=O)(=O)c2ccc(C(F)(F)F)cc2)c1 [Compound 170, 3-methoxy-2-((E)-{[(3-methoxyphenyl)acetyl]hydrazono}methyl)-phenyl 4-(trifluoromethyl)benzenesulfonate]
- IC50: < 5 µM

Structure (SMILES): COc1cccc(CC(=O)N/N=C/c2cc(C)ccc2OS(=O)(=O)c2ccc(C(F)(F)F)cc2)c1 [Compound 171, 2-((E)-{[(3-methoxyphenyl)acetyl]hydrazono}methyl)-4-methylphenyl 4-(trifluoromethyl)benzenesulfonate]
- IC50: < 5 µM

Structure (SMILES): COc1cccc(CC(=O)N/N=C/c2cc(F)ccc2OS(=O)(=O)c2ccc(C(F)(F)F)cc2)c1 [Compound 172, 4-fluoro-2-((E)-{[(3-methoxyphenyl)acetyl]hydrazono}methyl)-phenyl 4-(trifluoromethyl)benzenesulfonate]
- IC50: < 5 µM

Structure (SMILES): Cc1cccc(/C=N/NC(=O)Cc2cccc(Cl)c2)c1OS(=O)(=O)c1ccc(C(F)(F)F)cc1 [Compound 173, 2-((E)-{[(3-chlorophenyl)acetyl]hydrazono}methyl)-6-methylphenyl 4-(trifluoromethyl)benzenesulfonate]
- IC50: < 5 µM

Structure (SMILES): COc1cccc(OS(=O)(=O)c2ccc(C(F)(F)F)cc2)c1/C=N/NC(=O)Cc1cccc(Cl)c1 [Compound 174, 2-((E)-{[(3-chlorophenyl)acetyl]hydrazono}methyl)-3-methoxyphenyl 4-(trifluoromethyl)benzenesulfonate]
- IC50: < 5 µM

Structure (SMILES): Cc1ccc(OS(=O)(=O)c2ccc(C(F)(F)F)cc2)c(/C=N/NC(=O)Cc2cccc(Cl)c2)c1 [Compound 175, 2-((E)-{[(3-chlorophenyl)acetyl]hydrazono}methyl)-4-methylphenyl 4-(trifluoromethyl)benzenesulfonate]
- IC50: < 5 µM

— patent US7026339B2, “Inhibitors of HCV NS5B polymerase” (priority 2003, dated 2006)
